Results taken from the supplement of paper PMC3770661.
Where a name gives a salt, the structure may show the parent alone. ± gives the uncertainty stated by the source.

System: HepG2 (L1.3 5'UTR promoter firefly luciferase reporter)
Test: L1 promoter activity (FLuc/RLuc) relative to DMSO vehicle control (% of control); higher = stronger L1 promoter activation
Procedure: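 HepG2 cells in 96-well plates were cotransfected with pGL4.11-L1.3 5'UTR (firefly luciferase driven by the human L1.3 5'UTR promoter) and pGL4.74 (HSV-TK Renilla luciferase internal control), then treated with compound for 6 or 24 h. FLuc/RLuc ratio was normalised to the DMSO vehicle control (% of control); concentrations where RLuc fell below 50% of control were excluded (N.D.). Mean of at least two independent experiments in duplicate or quadruplicate.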

[1] = concentration (uM unless unit written): 10, treatment time: 6 h
[2] = concentration (uM unless unit written): 10, treatment time: 24 h
[3] = concentration (uM unless unit written): 25, treatment time: 6 h
[4] = concentration (uM unless unit written): 25, treatment time: 24 h
[5] = concentration (uM unless unit written): 50, treatment time: 6 h
[6] = concentration (uM unless unit written): 50, treatment time: 24 h
[7] = concentration (uM unless unit written): 100, treatment time: 6 h
[8] = concentration (uM unless unit written): 100, treatment time: 24 h
[9] = concentration (uM unless unit written): 0.1, treatment time: 6 h
[10] = concentration (uM unless unit written): 200, treatment time: 6 h
[11] = concentration (uM unless unit written): 0.1, treatment time: 24 h
[12] = concentration (uM unless unit written): 0.5, treatment time: 6 h
[13] = concentration (uM unless unit written): 0.5, treatment time: 24 h
[14] = concentration (uM unless unit written): 1, treatment time: 6 h
[15] = concentration (uM unless unit written): 1, treatment time: 24 h
[16] = concentration (uM unless unit written): 125, treatment time: 6 h
[17] = concentration (uM unless unit written): 125, treatment time: 24 h
[18] = concentration (uM unless unit written): 250, treatment time: 6 h
[19] = concentration (uM unless unit written): 250, treatment time: 24 h
[20] = concentration (uM unless unit written): 500, treatment time: 6 h

Structure (SMILES): COC(=O)[C@H](c1ccccc1Cl)N1CCc2sccc2C1 [Clopidogrel]
- L1 promoter activity [1]: 96.7 ± 8.6
- L1 promoter activity [2]: 113 ± 5.2
- L1 promoter activity [3]: 98.5 ± 12
- L1 promoter activity [4]: 113 ± 14
- L1 promoter activity [5]: 92.9 ± 6
- L1 promoter activity [6]: 110 ± 9.2
- L1 promoter activity [7]: 84.6 ± 4.5
- L1 promoter activity [8]: 107 ± 12

Structure (SMILES): COc1cc2c(c(OC)c1OC)-c1ccc(OC)c(=O)cc1[C@@H](NC(C)=O)CC2 [Colchicine]
- L1 promoter activity (concentration (uM unless unit written): 0.01, treatment time: 6 h): 100 ± 17
- L1 promoter activity (concentration (uM unless unit written): 0.01, treatment time: 24 h): 100 ± 18
- L1 promoter activity (concentration (uM unless unit written): 0.05, treatment time: 6 h): 99.8 ± 4.3
- L1 promoter activity [9]: 108 ± 32

Structure (SMILES): O=P1(N(CCCl)CCCl)NCCCO1 (stereo unspecified) [Cyclophosphamide]
- L1 promoter activity (concentration (uM unless unit written): 10000, treatment time: 6 h): 96.3 ± 14
- L1 promoter activity (concentration (uM unless unit written): 10000, treatment time: 24 h): 95.3 ± 11
- L1 promoter activity (concentration (uM unless unit written): 20000, treatment time: 6 h): 93.6 ± 22
- L1 promoter activity (concentration (uM unless unit written): 20000, treatment time: 24 h): 77.9 ± 4.5
- L1 promoter activity (concentration (uM unless unit written): 40000, treatment time: 6 h): 98.3 ± 8.4

Structure (SMILES): CN1CCC(=C2c3ccccc3C=Cc3ccccc32)CC1 [Cyproheptadine hydrochloride sesquihydrate]
- L1 promoter activity [5]: 90.1 ± 17
- L1 promoter activity [6]: 70.2 ± 14
- L1 promoter activity [7]: 74.7 ± 30
- L1 promoter activity [10]: 47.2 ± 12

Structure (SMILES): C=C1[C@@H](C)[C@H]2[C@H](Cc3ccccc3)NC(=O)[C@]23[C@H](OC(C)=O)/C=C/[C@@](C)(O)C(=O)[C@@H](C)C/C=C/[C@H]3[C@@H]1O [Cytochalasin D]
- L1 promoter activity [9]: 110 ± 13
- L1 promoter activity [11]: 106 ± 11
- L1 promoter activity [12]: 101 ± 7.4
- L1 promoter activity [13]: 128 ± 8.5
- L1 promoter activity [14]: 106 ± 12
- L1 promoter activity [15]: 167 ± 16
- L1 promoter activity [1]: 98.6 ± 13
- L1 promoter activity [2]: 295 ± 20

Structure (SMILES): Nc1ccn([C@@H]2O[C@H](CO)[C@@H](O)[C@@H]2O)c(=O)n1 [Cytosine arabinoside]
- L1 promoter activity [16]: 101 ± 8
- L1 promoter activity [17]: 106 ± 3.7
- L1 promoter activity [18]: 95.2 ± 5.5
- L1 promoter activity [19]: 105 ± 4.4
- L1 promoter activity [20]: 102 ± 8.1
- L1 promoter activity (concentration (uM unless unit written): 500, treatment time: 24 h): 103 ± 6.2

Structure (SMILES): O=C(O)Cc1ccccc1Nc1c(Cl)cccc1Cl [Diclofenac]
- L1 promoter activity [16]: 109 ± 7.5
- L1 promoter activity [17]: 68.5 ± 3.6
- L1 promoter activity [18]: 107 ± 1.6
- L1 promoter activity [19]: 59.6 ± 5.5

Structure (SMILES): CCOC(=O)CC(O)C(=O)OCC (stereo unspecified) [Diethyl malate]
- L1 promoter activity (concentration (uM unless unit written): 375, treatment time: 6 h): 127 ± 13
- L1 promoter activity (concentration (uM unless unit written): 750, treatment time: 6 h): 159 ± 18

Structure (SMILES): O=C(O)c1cc(-c2ccc(F)cc2F)ccc1O [Diflunisal]
- L1 promoter activity (concentration (uM unless unit written): 62.5, treatment time: 6 h): 148 ± 6.5
- L1 promoter activity (concentration (uM unless unit written): 62.5, treatment time: 24 h): 117 ± 8.5
- L1 promoter activity [16]: 136 ± 12
- L1 promoter activity [17]: 156 ± 4.7
- L1 promoter activity [18]: 159 ± 21

Structure (SMILES): COc1cccc2c1C(=O)c1c(O)c3c(c(O)c1C2=O)C[C@@](O)(C(=O)CO)C[C@@H]3O[C@H]1C[C@H](N)[C@H](O)[C@H](C)O1 [Doxorubicin]
- L1 promoter activity [11]: 88.8 ± 15
- L1 promoter activity [12]: 101 ± 33
- L1 promoter activity [13]: 40.2 ± 13
- L1 promoter activity [14]: 98.1 ± 26
- L1 promoter activity [15]: 30.3 ± 5.5

Structure (SMILES): NC1=NCC2c3ccccc3Cc3ccccc3N12 (stereo unspecified) [Epinastine hydrochloride]
- L1 promoter activity [7]: 93.6 ± 15
- L1 promoter activity [8]: 85.9 ± 26
- L1 promoter activity [10]: 77.8 ± 12
- L1 promoter activity [20]: 27.1 ± 3.8

Structure (SMILES): CCOC(=O)[C@@]1(CCCCCCOc2ccc(Cl)cc2)CO1 [Etomoxir]
- L1 promoter activity [5]: 127 ± 11
- L1 promoter activity [6]: 111 ± 15
- L1 promoter activity [7]: 147 ± 12
- L1 promoter activity [8]: 143 ± 17
- L1 promoter activity [20]: 181 ± 23

Structure (SMILES): COc1cc([C@@H]2c3cc4c(cc3[C@@H](O[C@@H]3O[C@@H]5CO[C@@H](C)O[C@H]5[C@H](O)[C@H]3O)[C@H]3COC(=O)[C@H]23)OCO4)cc(OC)c1O [Etoposide]
- L1 promoter activity [1]: 90.4 ± 7.5
- L1 promoter activity [2]: 95.7 ± 4.1
- L1 promoter activity [3]: 100 ± 30
- L1 promoter activity [4]: 108 ± 16
- L1 promoter activity [5]: 98.6 ± 21
- L1 promoter activity [6]: 138 ± 70

Structure (SMILES): CC(C)OC(=O)C(C)(C)Oc1ccc(C(=O)c2ccc(Cl)cc2)cc1 [Fenofibrate]
- L1 promoter activity [1]: 117 ± 9.8
- L1 promoter activity [2]: 108 ± 5.3
- L1 promoter activity [5]: 126 ± 11
- L1 promoter activity [6]: 127 ± 10
- L1 promoter activity [7]: 141 ± 12
- L1 promoter activity [8]: 163 ± 24

Structure (SMILES): OC(Cn1cncn1)(Cn1cncn1)c1ccc(F)cc1F [Fluconazole]
- L1 promoter activity (concentration (uM unless unit written): 1250, treatment time: 6 h): 108 ± 11
- L1 promoter activity (concentration (uM unless unit written): 1250, treatment time: 24 h): 99.5 ± 7.4
- L1 promoter activity (concentration (uM unless unit written): 2500, treatment time: 6 h): 99.2 ± 6.7
- L1 promoter activity (concentration (uM unless unit written): 2500, treatment time: 24 h): 92.7 ± 13
